The source of these data is patent US8013187B2, “2-cyclopenten-1-one oxime derivatives inhibiting production of TNF-α” (Amorepacific Corporation, priority 2004, dated 2011).

For series [1], the system named is production of TNF-α in rat PBMCs. The experiment in a line: Inhibition of TNF-α production in rat PBMCs (LPS/IFN-γ stimulated, ELISA). The format is cell-based. Conditions: PBMC; for IC50: rat PBMCs, LPS + IFN-γ, 18 hours; for inhibition at 3 µg/mL: @ 3 μg/ml. How it is done: (§1) Compounds of this invention were evaluated for their ability to inhibit the production of TNF-α in stimulated immune cells. […] Compounds of the present invention were evaluated for their therapeutic activity in animal models for inflammatory or immunological disorders. Also compounds of this invention were assayed for their ability to inhibit PDE4 isozymes.
Inhibition of TNF-α Production in Rat PBMCs: Compounds of the present invention were evaluated for their ability to inhibit the production of TNF-α in rat peripheral blood mononuclear cells (PBMCs) as described in the literature. [Exp. Geront. vol 37, 235-247 (2002)] In brief, 6 ml rat blood drawn from the abdominal vein as treated with ACD (acid/citrate/dextrose) was carefully added in a tube containing 6 ml Ficoll 1077, and the tube was centrifuged for 30 min at 1500 rpm (415 G) at room temperature. The cell fraction (middle fraction) was suspended in a 50 ml tube containing phosphate buffered saline (PBS). The tube was centrifuged for 5 min at 2000 rpm (737 G). The resulting pellet was suspended in 6 ml PBS and 6 ml Ficoll 1077, and centrifuged for 30 min at 1500 rpm (415 G) at room temperature to remove remaining plasma. The cell fraction was suspended in PBS and centrifuged for 5 min at 2000 rpm. Such a washing was repeated twice. Then the collected cells were suspended in 10 ml RPMI-1640 containing 10% FBS and further diluted to contain 4×10^6 cells per ml. The cell suspension was dispensed into a 96-well plate at 100 μl per well, which was pre-supplemented with 1 μl of either DMSO (placebo) or a DMSO stock solution containing a designated concentration of a compound of this invention. The plate was cultured for an hour at 37° C. under 5% CO2 and 95% O2. To each well, was added 100 μl RPMI-1640 containing 0.1 μg/ml LPS, 5 U/ml IFN-γ, and 10% FBS. Then the plate was subjected to a culture for 18 hours at 37° C. under 5% CO2 and 95% O2. An aliquot of the supernatant from each well was subjected to an ELISA assay to determine the TNF-α level in the well.
In general terms: An ELISA detects its analyte on a solid surface through an enzyme-linked reagent.

The subject of series [2] is production of TNF-α in human PBMCs. Nature of the series: Inhibition of TNF-α production in human PBMCs (ELISA). The format is cell-based. To be noted: PBMC. How it is done:
as §1
Inhibition of TNF-α Production in Human PBMCs: Compounds of the present invention were evaluated for their ability to inhibit the production of TNF-α in human PBMCs as described in the literature. [J. Med. Chem. vol 39, 3238-3240 (1996)] Blood was freshly drawn from healthy human subjects as treated with ACD to isolate human PBMCs according to the procedure employed for rat PBMCs. The employed assay method for the ELISA against human TNF-α was essentially identical to that for the rat TNF-α ELISA assay.

In series [3] the test system is production of TNF-α in mice stimulated with LPS. Nature of the series: In vivo inhibition of TNF-α production in mice stimulated with LPS. Conditions: Mus musculus, 2 h, LPS i.p., plasma at hour 2, read-out: % Inhibition of in vivo TNF-α production @ dose; for inhibition in vivo at 3 mg/kg: 3 mg/kg oral gavage. The procedure:
[J. Pharmacol. Exp. Therapeut. vol 279, 1453-1461 (1996)] In brief, either a compound of the instant invention with vehicle or vehicle only (5% Tween 80) was administered by oral gavage (10 ml/kg body weight) at hour 0 to mice (Balb/C or ICR, 25˜30 g) fasted overnight. The mice were subjected to a peritoneal injection with […] LPS per mouse at hour 0.5, and blood was drawn from the abdominal vein at hour 2 following euthanasia with CO2. Then plasma separated from the drawn blood by centrifugation was subjected to an ELISA assay to measure the level of TNF-α.

Values after ≈ are worked out from the molar mass of the structure shown. Where only a bound is given, the exact number is not on record here.

The term melting point denotes the temperature, or range, at which the solid turns liquid. `O=[N+]([O-])c1cccc(C2=C(C3CCCC3)CCC2=NO)c1` [Example 4, 3-cyclopentyl-2-(3-nitrophenyl)-2-cyclopenten-1-one oxime] came in with a melting point of 162 to 163 °C.
As a reminder, the inhibition is the change of the read-out against control, counted positive when it falls. Read a high inhibition as strong suppression. Molecule `Cc1ccc(C2=C(C3CCCC3)CCC2=NO)cc1[N+](=O)[O-]` [Example 5, 3-cyclopentyl-2-(4-methyl-3-nitrophenyl)-2-cyclopenten-1-one oxime] returned a melting point of 178 to 180 °C. Further, the inhibition at 0.3 µg/mL in series [1] (Rattus norvegicus, @ 0.3 μg/ml) stood at 66%.
By IC50 is commonly meant the concentration at which inhibition is half-maximal. The molecule `N#Cc1cccc(C2=C(C3CCCC3)CCC2=NO)c1` [Example 12, 2-(3-cyanophenyl)-3-cyclopentyl-2-cyclopenten-1-one oxime] yielded a melting point of 180 to 182 °C. The molecule further yielded an IC50 in series [2] of 0.16 µg/mL (≈ 0.601 µM). For the same molecule, the IC50 in series [1] was 0.1 µg/mL.
The inhibition in vivo is the drop in the measured response relative to a control, in per cent. For the molecule `N#Cc1cc(C2=C(C3CCCC3)CCC2=NO)ccc1F` [Example 13, 2-(3-cyano-4-fluorophenyl)-3-cyclopentyl-2-cyclopenten-1-one oxime], the melting point is 167 to 168 °C. Besides, the inhibition in vivo at 0.3 mg/kg in series [3] (0.3 mg/kg oral gavage) was 70%. Besides, the IC50 in series [1] was found to be 0.4 µg/mL.
Molecule `C=Cc1ccc(C2=C(C3CCCC3)CCC2=NO)cc1` [Example 18, 3-cyclopentyl-2-(4-vinylphenyl)-2-cyclopenten-1-one oxime] came in with a melting point of 177 to 179 °C. This molecule also yielded an inhibition at 3 µg/mL in series [1] (Rattus norvegicus) of 78%.
`ON=C1CCC(C2CCCC2)=C1c1cccc2c1oc1ccccc12` [Example 19, 3-cyclopentyl-2-(4-dibenzofuranyl)-2-cyclopenten-1-one oxime] returned a melting point of 195 to 200 °C. In series [1], the IC50 came to 1 µg/mL.
The like results for `CS(=O)(=O)c1cccc(C2=C(C3CCCC3)CCC2=NO)c1` [Example 23, 3-cyclopentyl-2-(3-methylsulfonylphenyl)-2-cyclopenten-1-one oxime] were, in that order, 164 to 165 °C and 1.2 µg/mL.
On to `ON=C1CCC(C2CCCC2)=C1c1cccc(O)c1` [Example 24, 3-cyclopentyl-2-(3-hydroxyphenyl)-2-cyclopenten-1-one oxime], for which the melting point is 207 to 209 °C.
With `OCc1cccc(C2=C(C3CCCC3)CCC2=NO)c1` [Example 25, 3-cyclopentyl-2-(3-hydroxymethylphenyl)-2-cyclopenten-1-one oxime], the IC50 in series [1] stood at 1.5 µg/mL.
`OCc1ccc(C2=C(C3CCCC3)CCC2=NO)cc1` [Example 26, 3-cyclopentyl-2-(4-hydroxymethylphenyl)-2-cyclopenten-1-one oxime] yielded a melting point of 187 to 190 °C.
For the molecule `ON=C1CCC(C2CCCCC2)=C1c1ccc(F)cc1` [Example 27, 3-cyclohexyl-2-(4-fluorophenyl)-2-cyclopenten-1-one oxime], the melting point lay within 173 to 176 °C. The inhibition in vivo at 3 mg/kg in series [3] came out at 87%. In addition, the IC50 in series [1] turned out to be 0.34 µg/mL.
Consider `ON=C1CCC(C2CCCCC2)=C1c1ccc(F)c(F)c1` [Example 30, 3-cyclohexyl-2-(3,4-difluorophenyl)-2-cyclopenten-1-one oxime], for which, in series [1], the IC50 is < 0.1 µg/mL.
As to `O=[N+]([O-])c1cccc(C2=C(C3CCCCC3)CCC2=NO)c1` [Example 31, 3-cyclohexyl-2-(3-nitrophenyl)-2-cyclopenten-1-one oxime], the melting point fell in the range of 201 to 202 °C.
As to `COc1cccc(C2=C(C3CCCCC3)CCC2=NO)c1` [Example 32, 3-cyclohexyl-2-(3-methoxyphenyl)-2-cyclopenten-1-one oxime], the melting point lay in the range of 149 to 150 °C. For the same molecule, in series [3], the inhibition in vivo at 3 mg/kg was determined as 92%. Besides, the IC50 in series [1] came to 0.49 µg/mL.
`CCCCC1=C(c2ccc(F)cc2)C(=NO)CC1` [Example 33, 3-butyl-2-(4-fluorophenyl)-2-cyclopenten-1-one oxime] yielded a melting point of 115 to 116 °C. Moreover, the IC50 in series [1] came to 2 µg/mL.
As to `CCCCC1=C(c2ccc(F)c(F)c2)C(=NO)CC1` [Example 34, 3-butyl-2-(3,4-difluorophenyl)-2-cyclopenten-1-one oxime], the IC50 in series [1] is 0.3 µg/mL.
The molecule `CCCCC1=C(c2ccc(O)c(F)c2)C(=NO)CC1` [Example 41, 3-butyl-2-(3-fluoro-4-hydroxyphenyl)-2-cyclopenten-1-one oxime] registered a melting point of 141 to 147 °C.
`CCCCC1=C(c2cccc(C(F)(F)F)c2)C(=NO)CC1` [Example 58, 3-butyl-2-{3-(trifluoromethyl)phenyl}-2-cyclopenten-1-one oxime] came in with a melting point of 65 to 67 °C. This molecule also came in with an inhibition at 3 µg/mL in series [1] (Rattus norvegicus) of 59%.
In the case of `CCCCCC1=C(c2ccc(F)cc2)C(=NO)CC1` [Example 65, 2-(4-fluorophenyl)-3-pentyl-2-cyclopenten-1-one oxime], the melting point lay within 101 to 102 °C. Besides, the midpoint of inhibition in series [2], the IC50, lay at 1.2 µg/mL (≈ 4.59 µM). The IC50 in series [1] was ~1 µg/mL.
As to `CCCCCC1=C(c2ccccc2)C(=NO)CC1` [Example 66, 3-pentyl-2-phenyl-2-cyclopenten-1-one oxime], the melting point was 110 to 111 °C. For the same molecule, the inhibition in vivo at 3 mg/kg in series [3] amounted to 45%. Moreover, the IC50 in series [1] is 1 to 3 µg/mL.
For `CCCCCC1=C(c2cccc([N+](=O)[O-])c2)C(=NO)CC1` [Example 71, 2-(3-nitrophenyl)-3-pentyl-2-cyclopenten-1-one oxime], the melting point lay within 79 to 80 °C.
As to `CCCCCC1=C(c2ccsc2)C(=NO)CC1` [Example 77, 3-pentyl-2-(3-thienyl)-2-cyclopenten-1-one oxime], the melting point fell in the range of 105 to 106 °C. Moreover, the IC50 in series [1] was 2.8 µg/mL.
Consider `CCCC1=C(c2ccc(F)cc2)C(=NO)CC1` [Example 78, 2-(4-fluorophenyl)-3-propyl-2-cyclopenten-1-one oxime], for which the melting point fell in the range of 165 to 166 °C. Also, the IC50 in series [1] was 0.62 µg/mL.
As for `CCCC1=C(c2cccc([N+](=O)[O-])c2)C(=NO)CC1` [Example 80, 2-(3-nitrophenyl)-3-propyl-2-cyclopenten-1-one oxime], the inhibition in vivo at 3 mg/kg in series [3] was found to be 95%. Besides, in series [1], the IC50 turned out to be 0.2 µg/mL.
Take `CCC1=C(c2ccc(F)cc2)C(=NO)CC1` [Example 81, 3-ethyl-2-(4-fluorophenyl)-2-cyclopenten-1-one oxime]: the melting point lay in the range of 168 to 169 °C. The IC50 in series [1] was ~3 µg/mL.
In turn, `CC1=C(c2ccc(F)cc2)C(=NO)CC1` [Example 83, 2-(4-fluorophenyl)-3-methyl-2-cyclopenten-1-one oxime] came in with a melting point of 170 to 171 °C. In addition, the IC50 in series [1] was ~10 µg/mL.
Taken in the same sequence, the figures for `CC(C)CC1=C(c2ccc(F)cc2)C(=NO)CC1` [Example 85, 2-(4-fluorophenyl)-3-isobutyl-2-cyclopenten-1-one oxime] were 154 to 157 °C and 0.77 µg/mL.
Taken in the same sequence, the figures for `CC(C)CC1=C(c2ccc(F)c(F)c2)C(=NO)CC1` [Example 86, 2-(3,4-difluorophenyl)-3-isobutyl-2-cyclopenten-1-one oxime] were 136 to 139 °C and 0.27 µg/mL.
In turn, `CC(C)CC1=C(c2cccc(C#N)c2)C(=NO)CC1` [Example 89, 2-(3-cyanophenyl)-3-isobutyl-2-cyclopenten-1-one oxime] registered a melting point of 138 to 140 °C. Besides, the IC50 in series [1] was found to be 0.09 µg/mL.
As to `CCCCCCCCCc1ccc(C2=C(CC(C)C)CCC2=NO)cc1F` [Example 90, 2-(3-fluoro-4-n-nonylphenyl)-3-isobutyl-2-cyclopenten-1-one oxime], the melting point lay in the range of 85 to 86 °C.
